In the oligonucleotide strings, read from the 5' end, every base follows the letter of its sugar. An asterisk marks phosphorothioate; unmarked linkages are phosphodiester. Other units and linkages are bracketed, terminal groups are in braces. A string of capitals states the bases alone. d = 2'-deoxy (DNA)
Legend:
rat CYP3A2 = assay: Midazolam sleep time in rats; format: in vivo; details: MZ 50 mg/kg i.p.
Experimental: Male Sprague-Dawley rats (Sasco, Omaha) weighing between 210 to 290 grams were used for all studies. The animals were exposed to 12 hour light/dark cycle and fed Purina rat chow and tap water ad libitum.
Sleep time was measured after i.p. injection of 50 mg/kg MZ (Hoffman-La Roche, Nutley, N.J.) at 0 (day 1), 24 (day 2) and […]. The volume of the injection was from 2.0 to 2.4 ml/rat. […] […] Control rats received saline only. Total volume injection was 0.1 ml in saline.

CYP3A2 = assay: Erythromycin demethylation (ED) in liver microsomes; format: in vivo, rat
Experimental: Sleep time was measured after i.p. injection of 50 mg/kg MZ (Hoffman-La Roche, Nutley, N.J.) at 0 (day 1), 24 (day 2) and 48 h (day 4). The volume of the injection was from 2.0 to 2.4 ml/rat. […] The rats were treated with 0.25, 0.50 or 1.00 mg antisense ODN i.p. immediately after the animal had regained its righting reflex determined at 0 and 24 h. Control rats received saline only. Total volume injection was 0.1 ml in saline.
Microsomes were prepared, as described by Franklin and Estabrook (cited above) for determination of enzyme level and activity.
Erythromycin demethylation (ED) was used a measure of CYP3A2 enzymatic activity (Gonzalez, Pharmacol. Rev. 40:243-87, 1989). Activity was recorded as micromoles of formaldehyde per milligram of protein per minute.

| Substance | MZ ST (midazolam sleep time) (rat CYP3A2; 100 μg/day i.p.) | ED (erythromycin demethylase activity) (CYP3A2; 100 μg/day i.p.) | MZ ST (midazolam sleep time) (rat CYP3A2; 1000 μg/day i.p.) | ED (erythromycin demethylase activity) (CYP3A2; 1000 μg/day i.p.) |
| --- | --- | --- | --- | --- |
| AUGM:YC/PMO: PMO myc control, SEQ ID NO: 44, 5′-ACGUUGAGGGGCAUCGUCC-3′ (all phosphorodiamidate morpholino (PMO), T or U not given here) | 20.6 ± 0.6 min | 110 μmol HCOH/mg/min | – | – |
| REV3A2/PMO: PMO reverse control, SEQ ID NO: 43, 5′-UACCUCGACGAAAGUCGAGAGU-3′ (all phosphorodiamidate morpholino (PMO), T or U not given here) | 20.3 ± 1.3 min | 99 μmol HCOH/mg/min | – | – |
| REV3A2/PS: PS DNA reverse control, SEQ ID NO: 43, 5′-TACCTCGACGAAAGTCGAGAGT-3′ (antisense dT*dA*dC*dC*dT*dC*dG*dA*dC*dG*dA*dA*dA*dG*dT*dC*dG*dA*dG*dA*dG*dT) | – | – | 22.4 ± 0.6 min | 91 μmol HCOH/mg/min |

Source: patent US6673778B1, “Enzyme inhibitors for metabolic redirection” (The Board of Regents of the University of Nebraska, priority 1996, dated 2004)
